Source: patent publication US20250241876A1, “ANTI-TUMOR COMPOUNDS AND METHODS OF USE THEREOF AND SYNTHESIS THEREOF” (Atossa Therapeutics, Inc., priority 2023, published 2025)

Experiments:
Assay type in all cases: cell-based
[1] = test system: MCF7 cells; experiment: Migration and invasion inhibition assays, MCF7; conditions: p<0.0001
[2] = test system: MCF7 cells; experiment: Scratch-wound cell migration assay, Example 24, MCF7; conditions: highest dose examined (5 μM)
Procedure: (§1) This example covers cell migration assays with endoxifen and endoxifen-related compounds. Scratch-wound density and width measurements were tracked for 70 to 100 hours in MCF7 and T47D samples following treatment with a compound. […] FIG. 75 is a series of images of masked and unmasked wounds from the cell migration assays, with the rightmost figure showing invadopodia in cells within wound sites. In FIGS. 76-85, subfigure A is a plot of relative wound density, subfigure B is a plot of wound width, and subfigure C is a series of representative wound images from Day 3 or 4 of treatment. FIGS. 76-85 correspond to endoxifen treatment of MCF7 samples (FIG. 76), endoxifen treatment of T47D samples (FIG. 77), Compound 5b treatment of MCF7 samples (FIG. 78), Compound 5b treatment of T47D samples (FIG. 79), Compound 5a treatment of MCF7 samples (FIG. 80), Compound 5a treatment of T47D samples (FIG. 81), Compound 7b treatment of MCF7 samples (FIG. 82), Compound 7b treatment of T47D samples (FIG. 83), Compound 7a treatment of MCF7 samples (FIG. 84), and Compound 7a treatment of T47D samples (FIG. 85), respectively. […]
(§2) Migration inhibition was primarily detected at the highest tested dose (5 μM), which may be due to the fact that MCF7 and T47D cells are not migratory in nature under normal conditions. […]

[3] = test system: estrogen-induced and ERα-mediated activation of an estrogen response element (ERE) luciferase reporter construct in ER+ T47D cells; experiment: Luciferase (ERE reporter) agonist/antagonist assay, ER+ cells; conditions: CSS+E2 media
[4] = test system: T47D cells; experiment: Migration and invasion inhibition assays, T47D; conditions: p<0.0001
[5] = test system: T47D cells; experiment: Anti-invasion (scratch wound) assay, Example 25; conditions: 1.25, 2.5, 5 μM
Excerpt: This example covers anti-invasion, apoptosis, and toxicity assays for various endoxifen-related compounds against multiple cancer cell lines. FIGS. 90A-F are plots that summarize results of proliferation assays for multiple cancer cell lines (MCF7, T47D, UCD4, and UCD12) in the presence of varying doses of endoxifen and multiple endoxifen-related compounds. FIGS. 91A-C are plots that summarize results of wound confluence measurements from scratch wound assays on T47D cells in the presence of 1.25 μM (FIG. 91A), 2.5 μM (FIG. 91B), and 5 μM (FIG. 91C) endoxifen and multiple endoxifen-related compounds. FIGS. 92A-C are plots that summarize results of wound density measurements from scratch wound assays on T47D cells in the presence of 1.25 μM (FIG. 92A), 2.5 μM (FIG. 92B), and 5 μM (FIG. 92C) endoxifen and multiple endoxifen-related compounds. FIGS. 93A-C are plots that summarize results of wound confluence measurements from scratch wound assays on MCF7 cells in the presence of 1.25 μM (FIG. 93A), 2.5 μM (FIG. 93B), and 5 μM (FIG. 93C) endoxifen and multiple endoxifen-related compounds. FIGS. 94A-C are plots that summarize results of wound density measurements from scratch wound assays on MCF7 cells in the presence of 1.25 μM (FIG. 94A), 2.5 μM (FIG. 94B), and 5 μM (FIG. 94C) endoxifen and multiple endoxifen-related compounds. […]

[6] = test system: T47D cancer cells; experiment: Cell migration (scratch-wound) assay, Example 20; conditions: high doses (FIGS. 58, 60, 62); 0 to 100 hours
Procedure: This example covers cell migration assays with endoxifen and multiple endoxifen-related compounds on T47D cancer cells. FIGS. 52A, 53A, 54A, 55A, and 56A are plots of relative wound density following treatment with vehicle or 0.02 to 6 μM endoxifen (FIG. 52A), Compound 5b (FIG. 53A), Compound 5a (FIG. 54A), Compound 7a (FIG. 55A), and Compound 7b (FIG. 56A) as a function of time (0 to 100 hours). FIGS. 52B, 53B, 54B, 55B, and 56B are plots of wound width following treatment with vehicle or 0.02 to 6 μM endoxifen (FIG. 52B), Compound 5b (FIG. 53B), Compound 5a (FIG. 54B), Compound 7a (FIG. 55B), and Compound 7b (FIG. 56B) as a function of time (0 to 100 hours). FIGS. 52C, 53C, 54C, 55C, and 56C are series of plots of individual replicates of relative wound density and wound width for endoxifen, Compound 5b, Compound 5a, Compound 7a, and Compound 7b, respectively. FIG. 57 is a plot of relative wound density over time (0 to 100 hours) for a wound treated with vehicle (DMSO), 5 μM endoxifen, 5 μM Compound 5b, and 5 μM Compound 5a. FIG. 58 is a plot of relative wound density over time (0 to 100 hours) for a wound treated with vehicle (DMSO), 5 μM endoxifen, 5 μM Compound 7a, and 5 μM Compound 7b. FIG. 59 is a plot of relative wound density over time (0 to 100 hours) for a wound treated with vehicle (DMSO), 2.5 μM endoxifen, 2.5 μM Compound 5b, and 2.5 μM Compound 5a. […]

[7] = test system: T47D cells; experiment: Scratch-wound cell migration assay, Example 24, T47D; conditions: highest dose examined (5 μM)
Procedure: as §1, §2

[8] = test system: T47D cells; experiment: Apoptosis induction, T47D, Example 29; conditions: for apoptosis induction in T47D cells: p<0.0001 vs. vehicle
[9] = test system: T47D cells; experiment: 2D culture proliferation, T47D; conditions: estrogen-deficient conditions
Excerpt: (§3) Approximately 80% of breast cancers express estrogen receptor alpha (ERα, ESR1) which drives cancer progression. […] (Z)-Endoxifen (ENDX), an active metabolite of tamoxifen, is a potent orally bioavailable selective estrogen receptor modulator with a favorable safety profile now under development for breast health applications. Its synthesis yields endoxifen-related byproduct new chemical entities (NCE), including Compound 7b, Compound 7a, Compound 5b and Compound 5a. This study compared the anti-estrogenic effects of these compounds to (Z)-endoxifen in ERα+ breast cancer cell lines (MCF7, T47D, UCD12), including those with ESR1 mutations (Y537S, D538G) linked to endocrine resistance.

[10] = test system: T47D cells with Y537S or D538G mutations; experiment: Proliferation, T47D ESR1 mutants
Excerpt: as §3

[11] = test system: ERα+ breast cancer cell lines; experiment: RT-qPCR analysis; conditions: 0.1 μM
[12] = test system: ERα+ breast cancer cell lines (MCF7, T47D, UCD12), including those with ESR1 mutations (Y537S, D538G); experiment: 2D culture proliferation, all lines, Example 29; conditions: 2D cultures, estrogen-containing media, 0.02-5 μM, across all lines; p<0.0001 vs. vehicle
Excerpt: as §3

[13] = test system: ERα+ breast cancer cell lines in 3D cultures; experiment: 3D culture cancer cell proliferation; conditions: ~1 μM
Excerpt: as §3

[14] = test system: ERα+ breast cancer cell lines; experiment: Cell cycle arrest, Example 29
Excerpt: as §3

[15] = test system: UCD12 cells; experiment: 2D culture proliferation, UCD12; conditions: 2D cultures, estrogen-containing media
Excerpt: as §3

[16] = test system: MCF7 cells; experiment: 2D culture proliferation, MCF7; conditions: 2D cultures, estrogen-containing media
Excerpt: as §3

CC/C(=C(/c1ccc(O)cc1)c1ccc(OCCN(C)C(C)=O)cc1)c1ccccc1 [Compound 7b]
migration and invasion inhibition compared with (Z)-endoxifen [1]: consistently outperformed (Z)-endoxifen
potency at inhibiting the migration and proliferation compared with endoxifen [2]: more potent than endoxifen
anti-proliferative effects in ER+ cells compared with endoxifen [3]: closely resemble that of endoxifen
migration and invasion inhibition compared with (Z)-endoxifen [4]: consistently outperformed (Z)-endoxifen
potency at inhibiting the invasion of T47D cells compared with endoxifen [5]: more potent than endoxifen
potency at inhibiting the migration and proliferation of T47D cells compared with endoxifen [6]: greater potency than endoxifen
potency at inhibiting the migration and proliferation compared with endoxifen [7]: more potent than endoxifen
apoptosis induction in T47D cells [8]: significantly induced
anti-proliferative activity compared with (Z)-endoxifen [9]: more effective

CC/C(=C(\c1ccc(O)cc1)c1ccc(OCCNC)cc1)c1ccccc1 [(Z)-endoxifen, (Z)-Endoxifen, reference compound]
potency, ranking [10]: most potent
RT-qPCR analysis, potency ranking [11]: most potent
anti-proliferative effect, inhibition [12]: 20-90%
potency in 3D cultures, ranking [13]: comparable, superior potency
G1 cell cycle arrest [14]: most effective
anti-proliferative effect, ranking [15]: strongest effects
anti-proliferative effect, ranking [16]: strongest effects
apoptosis induction in T47D cells, ranking [8]: superior activity
apoptosis induction in T47D cells [8]: significantly induced
